Data published in ChEMBL document CHEMBL3868599, “Strategy for designing selective α-l-rhamnosidase inhibitors: Synthesis and biological evaluation of l-DMDP cyclic isothioureas” (Bioorg Med Chem, 2017).

Tests used:
[1] = Inhibition of Penicillium decumbens alpha-L-rhamnosidase using p-nitrophenyl-glycoside as substrate by spectrophotometric method
[2] = Competitive inhibition of Penicillium decumbens alpha-L-rhamnosidase using p-nitrophenyl-glycoside as substrate by Lineweaver-Burk plot analysis
Penicillium decumbens [3] = assay: Potency index, ratio of 5-epi-deoxyrhamnojirimycin IC50 to compound IC50 for Penicillium decumbens alpha-L-rhamnosidase
Penicillium decumbens [4] = assay: Inhibition of Penicillium decumbens alpha-L-rhamnosidase at 1000 uM using p-nitrophenyl-glycoside as substrate by spectrophotometric method
Saccharomyces cerevisiae = assay: Inhibition of yeast alpha-glucosidase at 1000 uM using p-nitrophenyl-glycoside as substrate by spectrophotometric method
Prunus dulcis [5] = assay: Inhibition of almond beta-glucosidase at 1000 uM using p-nitrophenyl-glycoside as substrate by spectrophotometric method
Bos taurus = species: Bos taurus; assay: Inhibition of bovine liver beta-glucosidase at 1000 uM using p-nitrophenyl-glycoside as substrate by spectrophotometric method
Homo sapiens [6] = species: Homo sapiens; assay: Inhibition of human lysosomal beta-glucosidase at 1000 uM using 4-methylumbelliferyl-beta-D-glucopyranoside as substrate preincubated for 45 mins followed by substrate addition measured after 30 mins by fluorescence spectrophotometric method
Coffea = assay: Inhibition of coffee bean alpha-galactosidase at 1000 uM using p-nitrophenyl-glycoside as substrate by spectrophotometric method
Escherichia coli [7] = assay: Inhibition of Escherichia coli beta-galactosidase at 1000 uM using p-nitrophenyl-glycoside as substrate by spectrophotometric method
[8] = molecular target: T1, Alpha-mannosidase (Canavalia ensiformis) (UniProt C0HJB3); assay: Inhibition of Jack bean alpha-mannosidase at 1000 uM preincubated for 45 mins followed by addition of p-nitrophenyl-glycoside as substrate measured after 30 mins by fluorescence spectrophometry
T1 sequence (whole entry): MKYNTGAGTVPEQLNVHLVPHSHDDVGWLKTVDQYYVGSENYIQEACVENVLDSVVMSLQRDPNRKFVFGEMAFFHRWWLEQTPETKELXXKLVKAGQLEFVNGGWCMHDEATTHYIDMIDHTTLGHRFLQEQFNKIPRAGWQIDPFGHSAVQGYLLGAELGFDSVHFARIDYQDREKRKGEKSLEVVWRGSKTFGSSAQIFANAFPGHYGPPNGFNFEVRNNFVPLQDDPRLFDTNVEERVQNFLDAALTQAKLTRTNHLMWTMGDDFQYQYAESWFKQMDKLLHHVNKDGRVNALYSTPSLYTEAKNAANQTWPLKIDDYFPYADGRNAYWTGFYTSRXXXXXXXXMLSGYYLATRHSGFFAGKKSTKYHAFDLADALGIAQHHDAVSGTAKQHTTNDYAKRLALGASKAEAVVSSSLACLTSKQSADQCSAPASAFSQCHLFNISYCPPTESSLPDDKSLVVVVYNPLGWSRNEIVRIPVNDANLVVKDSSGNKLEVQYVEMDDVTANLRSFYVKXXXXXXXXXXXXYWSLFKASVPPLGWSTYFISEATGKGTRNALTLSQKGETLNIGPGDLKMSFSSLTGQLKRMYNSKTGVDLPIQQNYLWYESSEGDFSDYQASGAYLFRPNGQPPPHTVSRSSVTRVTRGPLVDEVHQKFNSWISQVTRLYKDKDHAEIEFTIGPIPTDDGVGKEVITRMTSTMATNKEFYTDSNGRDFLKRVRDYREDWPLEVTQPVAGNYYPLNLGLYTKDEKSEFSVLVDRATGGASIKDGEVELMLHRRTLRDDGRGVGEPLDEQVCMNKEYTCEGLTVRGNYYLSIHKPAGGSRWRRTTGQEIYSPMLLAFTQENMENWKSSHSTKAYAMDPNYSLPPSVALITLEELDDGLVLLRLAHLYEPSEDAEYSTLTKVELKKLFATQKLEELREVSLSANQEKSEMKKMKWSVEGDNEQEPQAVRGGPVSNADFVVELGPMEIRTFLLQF

Helix pomatia = assay: Inhibition of Helix pomatia beta-mannosidase at 1000 uM using p-nitrophenyl-glycoside as substrate by spectrophotometric method
Aspergillus niger [9] = assay: Inhibition of Aspergillus niger amyloglucosidase assessed as D-glucose level at 1000 uM using maltose as substrate measured after 10 to 30 mins
[10] = Inhibition of Penicillium decumbens alpha-L-rhamnosidase assessed as reduction in hydrolysis of p-nitrophenyl-a-L-rhamnopyranoside
Prunus dulcis [11] = assay: Inhibition of almond beta-glucosidase at 100 uM using p-nitrophenyl-glycoside as substrate by spectrophotometric method
[12] = Inhibition of bovine liver beta-glucosidase using p-nitrophenyl-glycoside as substrate by spectrophotometric method; parameters: species or system Bos taurus
Oryza sativa [13] = assay: Inhibition of rice alpha-glucosidase at 100 uM using p-nitrophenyl-glycoside as substrate by spectrophotometric method
Rattus norvegicus [14] = species: Rattus norvegicus; assay: Inhibition of rat intestinal maltase assessed as D-glucose level at 100 uM using maltose as substrate measured after 10 to 30 mins
[15] = molecular target: T2, Beta-galactosidase (Bos taurus) (UniProt Q58D55); assay: (§1) Inhibition of bovine liver beta-galactosidase using p-nitrophenyl-glycoside as substrate by spectrophotometric method; details: concentration not given here
T2 sequence (whole entry): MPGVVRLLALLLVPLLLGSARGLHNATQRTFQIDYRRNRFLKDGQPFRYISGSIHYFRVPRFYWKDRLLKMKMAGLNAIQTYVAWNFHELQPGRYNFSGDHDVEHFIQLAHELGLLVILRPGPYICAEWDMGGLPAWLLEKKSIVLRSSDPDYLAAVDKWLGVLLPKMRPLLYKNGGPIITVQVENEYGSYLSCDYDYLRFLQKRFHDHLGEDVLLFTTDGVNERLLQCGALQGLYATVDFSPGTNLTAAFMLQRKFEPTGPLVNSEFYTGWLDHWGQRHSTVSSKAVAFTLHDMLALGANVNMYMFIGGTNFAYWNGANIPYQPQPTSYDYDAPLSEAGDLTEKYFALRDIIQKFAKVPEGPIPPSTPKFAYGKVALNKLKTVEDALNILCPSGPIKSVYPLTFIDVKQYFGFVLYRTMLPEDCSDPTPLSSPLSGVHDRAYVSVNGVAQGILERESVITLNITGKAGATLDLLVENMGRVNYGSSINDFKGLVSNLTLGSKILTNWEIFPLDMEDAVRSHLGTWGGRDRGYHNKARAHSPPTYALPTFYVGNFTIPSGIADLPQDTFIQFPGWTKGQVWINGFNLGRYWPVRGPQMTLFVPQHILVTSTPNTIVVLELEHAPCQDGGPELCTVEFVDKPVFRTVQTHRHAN

Aspergillus niger [16] = assay: Inhibition of Aspergillus niger amyloglucosidase assessed as D-glucose level at 100 uM using maltose as substrate measured after 10 to 30 mins
[17] = molecular target: T3, Tissue alpha-L-fucosidase (Bos taurus) (UniProt Q2KIM0); assay: Inhibition of bovine kidney alpha-L-fucosidase at 100 uM using p-nitrophenyl-glycoside as substrate by spectrophotometric method
T3 sequence (whole entry): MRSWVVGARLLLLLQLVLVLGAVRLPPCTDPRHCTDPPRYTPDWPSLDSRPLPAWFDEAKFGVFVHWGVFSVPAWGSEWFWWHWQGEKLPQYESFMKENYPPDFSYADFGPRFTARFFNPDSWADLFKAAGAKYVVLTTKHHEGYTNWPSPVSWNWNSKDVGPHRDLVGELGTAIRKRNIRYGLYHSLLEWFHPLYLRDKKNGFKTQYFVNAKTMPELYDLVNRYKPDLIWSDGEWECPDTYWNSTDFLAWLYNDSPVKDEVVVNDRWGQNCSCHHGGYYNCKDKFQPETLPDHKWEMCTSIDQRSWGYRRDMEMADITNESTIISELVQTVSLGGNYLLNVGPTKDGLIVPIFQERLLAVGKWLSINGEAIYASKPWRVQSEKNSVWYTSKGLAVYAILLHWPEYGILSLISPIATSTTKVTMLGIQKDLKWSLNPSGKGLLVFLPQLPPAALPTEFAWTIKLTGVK

[18] = molecular target: T4, Uncharacterized protein (Sus scrofa) (UniProt I3LIR5); assay: Inhibition of porcine kidney trehalase assessed as D-glucose level at 100 uM using maltose as substrate measured after 10 to 30 mins
T4 sequence (whole entry): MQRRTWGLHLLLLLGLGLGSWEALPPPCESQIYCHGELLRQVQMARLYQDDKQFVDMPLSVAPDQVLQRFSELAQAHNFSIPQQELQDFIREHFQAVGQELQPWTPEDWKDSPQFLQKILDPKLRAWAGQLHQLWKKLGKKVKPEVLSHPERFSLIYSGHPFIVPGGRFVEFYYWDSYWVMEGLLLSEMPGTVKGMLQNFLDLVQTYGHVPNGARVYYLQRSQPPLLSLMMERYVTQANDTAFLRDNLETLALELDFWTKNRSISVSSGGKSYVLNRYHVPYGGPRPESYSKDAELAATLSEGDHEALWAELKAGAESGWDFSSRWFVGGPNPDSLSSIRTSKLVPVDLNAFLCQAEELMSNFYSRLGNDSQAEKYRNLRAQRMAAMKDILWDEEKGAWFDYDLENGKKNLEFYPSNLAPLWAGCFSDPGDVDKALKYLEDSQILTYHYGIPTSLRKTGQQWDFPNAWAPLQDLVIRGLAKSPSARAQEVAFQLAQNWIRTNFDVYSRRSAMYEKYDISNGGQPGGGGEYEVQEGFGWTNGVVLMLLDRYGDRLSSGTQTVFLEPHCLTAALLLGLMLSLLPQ

Homo sapiens [19] = species: Homo sapiens; assay: Inhibition of human lysosomal beta-glucosidase at 100 uM using 4-methylumbelliferyl-beta-D-glucopyranoside as substrate preincubated for 45 mins followed by substrate addition measured after 30 mins by fluorescence spectrophotometric method
Escherichia coli [20] = assay: Inhibition of Escherichia coli beta-glucuronidase at 100 uM using p-nitrophenyl-glycoside as substrate by spectrophotometric method
Oryza sativa [21] = assay: Inhibition of rice alpha-glucosidase at 1000 uM using p-nitrophenyl-glycoside as substrate by spectrophotometric method
Rattus norvegicus [22] = species: Rattus norvegicus; assay: Inhibition of rat intestinal maltase assessed as D-glucose level at 1000 uM using maltose as substrate measured after 10 to 30 mins
[23] = molecular target: T2, Beta-galactosidase (Bos taurus); assay: Inhibition of bovine liver beta-galactosidase at 1000 uM using p-nitrophenyl-glycoside as substrate by spectrophotometric method
[24] = molecular target: T3, Tissue alpha-L-fucosidase (Bos taurus); assay: Inhibition of bovine kidney alpha-L-fucosidase at 1000 uM using p-nitrophenyl-glycoside as substrate by spectrophotometric method
[25] = molecular target: T4, Uncharacterized protein (Sus scrofa); assay: Inhibition of porcine kidney trehalase assessed as D-glucose level at 1000 uM using maltose as substrate measured after 10 to 30 mins
Escherichia coli [26] = assay: Inhibition of Escherichia coli beta-glucuronidase at 1000 uM using p-nitrophenyl-glycoside as substrate by spectrophotometric method
Beta-galactosidase = molecular target: T5, Beta-galactosidase (Bos taurus, UniProt Q58D55); assay: as §1
T5 sequence (Q58D55 whole entry): T2 sequence (whole entry)

[27] = Inhibition of rice alpha-glucosidase using p-nitrophenyl-glycoside as substrate by spectrophotometric method; parameters: species or system Oryza sativa
[28] = Inhibition of maltase in rat small intestinal brush border membranes assessed as D-glucose level using maltose as substrate measured after 10 to 30 mins

Row | IC50 [1] [µM] | inhibition (Saccharomyces cerevisiae) [%] | inhibition (Prunus dulcis [5]) [%] | inhibition (Bos taurus) [%] | inhibition (Homo sapiens [6]) [%] | inhibition (Coffea) [%] | inhibition (Escherichia coli [7]) [%] | inhibition [8] [%] | inhibition (Helix pomatia) [%] | inhibition (Aspergillus niger [9]) [%] | inhibition [24] [%] | inhibition [25] [%] | inhibition (Escherichia coli [26]) [%] | SMILES | also measured
1 | 0.23 |  |  |  |  |  |  |  |  |  |  |  |  | OC[C@H]1[C@H](O)[C@@H](O)[C@@H]2CS/C(=N/Cc3ccc(Cl)c(Cl)c3)N12 | Ki [2]: 0.11 µM; Ratio IC50 (Penicillium decumbens [3]): 46
2 |  | < 50 | < 50 | < 50 | < 50 | < 50 | < 50 | < 50 | < 50 | < 50 |  |  |  | OC[C@@H]1N[C@@H](CO)[C@H](O)[C@H]1O | inhibition (Penicillium decumbens [4]): < 50%
3 |  |  |  |  |  |  |  |  |  |  |  |  |  | C[C@H](O)[C@H]1[C@@H](O)[C@@H](O)c2nnnn21 | IC50 [10]: 70 µM
4 | 0.87 |  |  |  |  |  |  |  |  |  |  |  |  | OC[C@H]1[C@H](O)[C@@H](O)[C@@H]2CS/C(=N/CCCCCCCCCc3ccccc3)N12 | inhibition (Prunus dulcis [11]): < 50%; IC50 [12]: 33 µM; inhibition (Oryza sativa [13]): < 50%; inhibition (Rattus norvegicus [14]): < 50%; inhibition [15]: < 50%; inhibition (Aspergillus niger [16]): < 50%; inhibition [17]: < 50%; inhibition [18]: < 50%; inhibition (Homo sapiens [19]): < 50%; inhibition (Escherichia coli [20]): < 50%
5 | 1.6 | < 50 | < 50 | < 50 | < 50 | < 50 | < 50 | < 50 | < 50 | < 50 | < 50 | < 50 | < 50 | CCCCCCCC/N=C1/SC[C@H]2[C@H](O)[C@@H](O)[C@H](CO)N12 | inhibition (Oryza sativa [21]): < 50%; inhibition (Rattus norvegicus [22]): < 50%; inhibition [23]: < 50%
6 | 5.3 |  | < 50 | < 50 | < 50 |  |  |  |  | < 50 | < 50 | < 50 | < 50 | CCCCCC/N=C1/SC[C@H]2[C@H](O)[C@@H](O)[C@H](CO)N12 | IC50 (Beta-galactosidase): 599 µM; IC50 [27]: 418 µM; IC50 [28]: 799 µM
